Experimental data from patent US10118930B2, “Piperidinylpyrazolopyrimidinones and their use” (BAYER PHARMA AKTIENGESELLSCHAFT, priority 2015, dated 2018).
Where a name gives a salt, the structure may show the parent alone.

Test system: clot lysis (fibrinolysis) in diluted human citrated plasma, tPA-induced
Test: Plasma-based clot lysis assay (5%)
Type: biochemical
Conditions: human citrated platelet-poor plasma 5%, fibrinogen 3 μM, CaCl2 10 mM, tPA 0.2 nM, 37° C., OD at 405 nm
Method in brief: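 Clot formation and breakdown triggered by CaCl2 (10 mM final) plus tPA (0.2 nM final) at 37° C, in 5% diluted human plasma supplemented with 3 μM fibrinogen (HEPES/NaCl/Brij buffer, pH 7). IC50 obtained from time courses relative to a blank control.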

Row | IC50 | SMILES
1 | 0.034 µM | O=c1cc(C2CCNCC2)n2ncc(-c3nnc(C4CC4)o3)c2[nH]1 [Example 174, 3-(5-cyclopropyl-1,3,4-oxadiazol-2-yl)-7-(piperidin-4-yl)pyrazolo[1,5-a]pyrimidin-5 (4H)-one hydrochloride]
2 | 0.035 µM | O=c1cc(C2CCNCC2)n2ncc(-c3nnc(-c4cccc(C(F)(F)F)c4)o3)c2[nH]1 [Example 175, 7-(piperidin-4-yl)-3-{5-[3-(trifluoromethyl)phenyl]-1,3,4-oxadiazol-2-yl}pyrazolo[1,5-a]pyrimidin-5(4H)-one hydrochloride]
3 | 0.04 µM | O=c1cc(C2CCNCC2)n2ncc(-c3nnc(C4CCCC4)o3)c2[nH]1 [Example 177, 3-(5-cyclopentyl-1,3,4-oxadiazol-2-yl)-7-(piperidin-4-yl)pyrazolo[1,5-a]pyrimidin-5(4H)-one hydrochloride]
4 | 0.034 µM | O=c1cc(C2CCNCC2)n2ncc(-c3nnc(-c4ccco4)o3)c2[nH]1 [Example 178, 3-[5-(2-furyl)-1,3,4-oxadiazol-2-yl]-7-(piperidin-4-yl)pyrazolo[1,5-a]pyrimidin-5 (4H)-one hydrochloride]
5 | 0.037 µM | CC(C)(C)c1ccc(-c2nnc(-c3cnn4c(C5CCNCC5)cc(=O)[nH]c34)o2)cc1 [Example 179, 3-[5-(4-tert-butylphenyl)-1,3,4-oxadiazol-2-yl]-7-(piperidin-4-yl)pyrazolo[1,5-a]pyrimidin-5 (4H)-one hydrochloride]
6 | 0.035 µM | O=c1cc(C2CCNCC2)n2ncc(-c3nnc(Cc4ccccc4)o3)c2[nH]1 [Example 180, 3-(5-benzyl-1,3,4-oxadiazol-2-yl)-7-(piperidin-4-yl)pyrazolo[1,5-a]pyrimidin-5(4H)-one hydrochloride]
7 | 0.028 µM | O=c1cc(C2CCNCC2)n2ncc(-c3nnc(-c4ccc(Cl)cc4)o3)c2[nH]1 [Example 181, 3-[5-(4-chlorophenyl)-1,3,4-oxadiazol-2-yl]-7-(piperidin-4-yl)pyrazolo[1,5-a]pyrimidin-5(4H)-one hydrochloride]
8 | 0.035 µM | O=c1cc(C2CCNCC2)n2ncc(-c3nnc(CC4CCCCC4)o3)c2[nH]1 [Example 182, 3-[5-(cyclohexylmethyl)-1,3,4-oxadiazol-2-yl]-7-(piperidin-4-yl)pyrazolo[1,5-a]pyrimidin-5 (4H)-one hydrochloride]
9 | 0.038 µM | O=c1cc(C2CCNCC2)n2ncc(-c3nnc(-c4ccncc4)o3)c2[nH]1 [Example 185, 7-(piperidin-4-yl)-3-[5-(pyridin-4-yl)-1,3,4-oxadiazol-2-yl]pyrazolo[1,5-a]pyrimidin-5 (4H)-one hydrochloride]
10 | 0.034 µM | O=c1cc(C2CCNCC2)n2ncc(-c3nnc(-c4ccccc4F)o3)c2[nH]1 [Example 186, 3-[5-(2-fluorophenyl)-1,3,4-oxadiazol-2-yl]-7-(piperidin-4-yl)pyrazolo[1,5-a]pyrimidin-5(4H)-one hydrochloride]
11 | 0.035 µM | Cc1nc(-c2ccccc2)sc1-c1cnn2c(C3CCNCC3)cc(=O)[nH]c12 [Example 187, 3-(4-methyl-2-phenyl-1,3-thiazol-5-yl)-7-(piperidin-4-yl)pyrazolo[1,5-a]pyrimidin-5(4H)-one hydrochloride]
12 | 0.035 µM | O=c1cc(C2CCNCC2)n2ncc(-c3nc(-c4ccc(C(F)(F)F)nc4)no3)c2[nH]1 [Example 188, 7-(piperidin-4-yl)-3-{3-[6-(trifluoromethyl)pyridin-3-yl]-1,2,4-oxadiazol-5-yl}pyrazolo[1,5-a]pyrimidin-5(4H)-one hydrochloride]
13 | 0.038 µM | O=c1cc(C2CCNCC2)n2ncc(-c3nc(-c4cnccc4C(F)(F)F)no3)c2[nH]1 [Example 189, 7-(piperidin-4-yl)-3-{3-[4-(trifluoromethyl)pyridin-3-yl]-1,2,4-oxadiazol-5-yl}pyrazolo[1,5-a]pyrimidin-5(4H)-one hydrochloride]
14 | 0.034 µM | O=c1cc(C2CCNCC2)n2ncc(-c3nc(-c4cc(F)c(F)cc4F)no3)c2[nH]1 [Example 190, 7-(piperidin-4-yl)-3-[3-(2,4,5-trifluorophenyl)-1,2,4-oxadiazol-5-yl]pyrazolo[1,5-a]pyrimidin-5 (4H)-one hydrochloride]
15 | 0.034 µM | CS(=O)(=O)Cc1noc(-c2cnn3c(C4CCNCC4)cc(=O)[nH]c23)n1 [Example 191, 3-{3-[(methylsulfonyl)methyl]-1,2,4-oxadiazol-5-yl}-7-(piperidin-4-yl)pyrazolo[1,5-a]pyrimidin-5(4H)-one hydrochloride]
16 | 0.034 µM | O=c1cc(C2CCNCC2)n2ncc(-c3nc(CCCC(F)(F)F)no3)c2[nH]1 [Example 192, 7-(piperidin-4-yl)-3-[3-(4,4,4-trifluorobutyl)-1,2,4-oxadiazol-5-yl]pyrazolo[1,5-a]pyrimidin-5(4H)-one hydrochloride]

Row | IC50 | SMILES
17 | 0.035 µM | O=c1cc(C2CCNCC2)n2ncc(-c3nc(Cc4ccc(F)cc4Cl)no3)c2[nH]1 [Example 195, 3-[3-(2-chloro-4-fluorobenzyl)-1,2,4-oxadiazol-5-yl]-7-(piperidin-4-yl)pyrazolo[1,5-a]pyrimidin-5(4H)-one hydrochloride]
18 | 0.034 µM | Cc1ccccc1Cc1noc(-c2cnn3c(C4CCNCC4)cc(=O)[nH]c23)n1 [Example 198, 3-[3-(2-methylbenzyl)-1,2,4-oxadiazol-5-yl]-7-(piperidin-4-yl)pyrazolo[1,5-a]pyrimidin-5(4H)-one hydrochloride]
19 | 0.034 µM | NC(=O)c1noc(-c2cnn3c(C4CCNCC4)cc(=O)[nH]c23)n1 [Example 200, 5-[5-oxo-7-(piperidin-4-yl)-4,5-dihydropyrazolo[1,5-a]pyrimidin-3-yl]-1,2,4-oxadiazole-3-carboxamide hydrochloride]
20 | 0.034 µM | CC(C)S(=O)(=O)Cc1noc(-c2cnn3c(C4CCNCC4)cc(=O)[nH]c23)n1 [Example 201, 3-{3-[(isopropylsulfonyl)methyl]-1,2,4-oxadiazol-5-yl}-7-(piperidin-4-yl)pyrazolo[1,5-a]pyrimidin-5(4H)-one hydrochloride]
21 | 0.034 µM | CN1CCC(Cc2noc(-c3cnn4c(C5CCNCC5)cc(=O)[nH]c34)n2)CC1 [Example 203, 3-{3-[(1-methylpiperidin-4-yl)methyl]-1,2,4-oxadiazol-5-yl}-7-(piperidin-4-yl)pyrazolo[1,5-a]pyrimidin-5(4H)-one hydrochloride]
22 | 0.035 µM | COC(=O)c1ccc(-c2noc(-c3cnn4c(C5CCNCC5)cc(=O)[nH]c34)n2)cc1 [Example 204, Methyl 4-{5-[5-oxo-7-(piperidin-4-yl)-4,5-dihydropyrazolo[1,5-a]pyrimidin-3-yl]-1,2,4-oxadiazol-3-yl}benzoate hydrochloride]
23 | 0.035 µM | O=c1cc(C2CCNCC2)n2ncc(-c3nc(-c4cccc([N+](=O)[O-])c4)no3)c2[nH]1 [Example 205, 3-[3-(3-nitrophenyl)-1,2,4-oxadiazol-5-yl]-7-(piperidin-4-yl)pyrazolo[1,5-a]pyrimidin-5(4H)-one hydrochloride]
24 | 0.055 µM | Nc1cccc(-c2noc(-c3cnn4c(C5CCNCC5)cc(=O)[nH]c34)n2)c1 [Example 208, 3-[3-(3-aminophenyl)-1,2,4-oxadiazol-5-yl]-7-(piperidin-4-yl)pyrazolo[1,5-a]pyrimidin-5 (4H)-one hydrochloride]
25 | 0.036 µM | O=c1cc(C2CCNCC2)n2ncc(-c3nc(Cc4ccccc4Cl)no3)c2[nH]1 [Example 209, 3-[3-(2-chlorobenzyl)-1,2,4-oxadiazol-5-yl]-7-(piperidin-4-yl)pyrazolo[1,5-a]pyrimidin-5(4H)-one hydrochloride]
26 | 0.034 µM | O=c1cc(C2CCNCC2)n2ncc(-c3nc(Cc4ccc(Cl)cc4)no3)c2[nH]1 [Example 210, 3-[3-(4-chlorobenzyl)-1,2,4-oxadiazol-5-yl]-7-(piperidin-4-yl)pyrazolo[1,5-a]pyrimidin-5(4H)-one hydrochloride]
27 | 0.058 µM | NCc1noc(-c2cnn3c(C4CCNCC4)cc(=O)[nH]c23)n1 [Example 212, 3-[3-(aminomethyl)-1,2,4-oxadiazol-5-yl]-7-(piperidin-4-yl)pyrazolo[1,5-a]pyrimidin-5 (4H)-one hydrochloride]
28 | 0.03 µM | O=c1cc(C2CCNCC2)n2ncc(-c3nc(Cc4ccc(Cl)c(Cl)c4)no3)c2[nH]1 [Example 213, 3-[3-(3,4-dichlorobenzyl)-1,2,4-oxadiazol-5-yl]-7-(piperidin-4-yl)pyrazolo[1,5-a]pyrimidin-5 (4H)-one hydrochloride]
29 | 0.032 µM | Cc1ccc(Cc2noc(-c3cnn4c(C5CCNCC5)cc(=O)[nH]c34)n2)cc1 [Example 214, 3-[3-(4-methylbenzyl)-1,2,4-oxadiazol-5-yl]-7-(piperidin-4-yl)pyrazolo[1,5-a]pyrimidin-5(4H)-one hydrochloride]
30 | 0.034 µM | CC(c1ccccc1)c1noc(-c2cnn3c(C4CCNCC4)cc(=O)[nH]c23)n1 (stereo not drawn) [Example 215, 3-[3-(1-phenylethyl)-1,2,4-oxadiazol-5-yl]-7-(piperidin-4-yl)pyrazolo[1,5-a]pyrimidin-5(4H)-one hydrochloride]
31 | 0.034 µM | O=c1cc(C2CCNCC2)n2ncc(-c3noc(-c4ccccc4F)n3)c2[nH]1 [Example 216, 3-[5-(2-fluorophenyl)-1,2,4-oxadiazol-3-yl]-7-(piperidin-4-yl)pyrazolo[1,5-a]pyrimidin-5 (4H)-one hydrochloride]
32 | 0.036 µM | O=c1cc(C2CCNCC2)n2ncc(-c3noc(Cc4cccc(Cl)c4)n3)c2[nH]1 [Example 217, 3-[5-(3-chlorobenzyl)-1,2,4-oxadiazol-3-yl]-7-(piperidin-4-yl)pyrazolo[1,5-a]pyrimidin-5(4H)-one hydrochloride]

Same assay, conditions: human citrated platelet-poor plasma 5%, fibrinogen 3 μM, CaCl2 10 mM, tPA 0.2 nM, 37° C., OD at 405 nm; hydrochloride

Row | IC50 | SMILES
33 | 0.034 µM | CCc1noc(-c2cnn3c(C4CCNCC4)cc(=O)[nH]c23)n1 [Example 199, 3-(3-ethyl-1,2,4-oxadiazol-5-yl)-7-(piperidin-4-yl)pyrazolo[1,5-a]pyrimidin-5(4H)-one hydrochloride]
